Laboratory results as given in US10214546B2, “Btk inhibitors” (MERCK SHARP & DOHME CORP., priority 2014, dated 2019).
Where two headings read alike, the source gives them in different places.

Legend:
[1] = target: BTK enzyme (recombinant full-length BTK, hBTK) (Homo sapiens (Human), UniProt Q06187); assay: BTK enzymatic activity LANCE TR-FRET assay; assay type: biochemical; details: 50 pM hBTK, 25 μM ATP, 2 μM biotin-A5-peptide; compound range 1 μM to 0.017 nM; read-out: BTK binding IC50
[2] = test system: adenosine uptake into HeLa cells; assay: [3H]Adenosine uptake assay in HeLa cells; assay type: cell-based; details: [3H]adenosine accumulation in HeLa cells, compound range 10 μM to 0.032 nM, read-out: ADU inhibition IC50
Method in brief: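 HeLa cells in HBSS + 5% FBS were preincubated 30 min at ambient temperature with compound (ten-point 1:3 series, 10 µM–[…] final), then given [3H]adenosine (added as a 500 nM solution) for 60 min. Cell-associated label was read by scintillating-plate proximity counting; IC50 from 4-parameter fit of cps versus log concentration.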

BTK enzyme (recombinant full-length BTK, hBTK), sequence (Q06187 whole entry): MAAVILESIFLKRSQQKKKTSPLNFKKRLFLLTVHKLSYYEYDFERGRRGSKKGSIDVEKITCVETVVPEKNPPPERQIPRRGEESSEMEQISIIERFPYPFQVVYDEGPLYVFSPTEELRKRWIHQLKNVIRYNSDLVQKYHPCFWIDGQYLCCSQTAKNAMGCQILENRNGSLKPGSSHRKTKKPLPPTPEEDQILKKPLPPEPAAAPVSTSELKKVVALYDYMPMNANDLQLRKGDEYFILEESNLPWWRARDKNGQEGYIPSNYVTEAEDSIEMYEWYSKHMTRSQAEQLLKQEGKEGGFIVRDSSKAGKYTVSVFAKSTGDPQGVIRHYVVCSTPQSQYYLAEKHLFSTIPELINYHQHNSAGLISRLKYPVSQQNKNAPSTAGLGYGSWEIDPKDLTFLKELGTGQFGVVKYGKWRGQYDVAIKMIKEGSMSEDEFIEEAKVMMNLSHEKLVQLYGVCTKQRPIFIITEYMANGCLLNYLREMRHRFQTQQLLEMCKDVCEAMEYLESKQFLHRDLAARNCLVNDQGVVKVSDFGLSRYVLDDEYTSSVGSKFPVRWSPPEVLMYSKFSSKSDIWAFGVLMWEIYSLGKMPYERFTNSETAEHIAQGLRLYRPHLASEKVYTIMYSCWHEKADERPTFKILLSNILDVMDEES

Compound | IC50 [1] | IC50 ([2]; Homo sapiens, HeLa) | IC50 [2]
C[C@@](O)(c1ccc(-c2nc([C@@H]3CC[C@H]4C(C(F)(F)F)CC(=O)N4C3)n3ccnc(N)c23)cc1)c1cccc(C(F)(F)F)c1 (stereo partly drawn) [Example 179, (1R,6R,8aS)-6-[8-amino-1-(4-{(1R)-1-hydroxy-1-[3-(trifluoromethyl)phenyl]ethyl}phenyl)imidazo [1,5-a]pyrazin-3-yl]-1-(trifluoromethyl) hexahydroindolizin-3(2H)-one] | 3.5 nM | 3300 nM | 
C[C@@](O)(c1ccc(-c2nc([C@@H]3CC[C@H]4C(C(F)(F)F)CC(=O)N4C3)n3ccnc(N)c23)cc1)c1cccc(C(F)(F)F)c1 (stereo partly drawn) [Example 180, (1R,6R,8aS)-6-[8-amino-1-(4-{(1R)-1-hydroxy-1-[3-(trifluoromethyl)phenyl]ethyl}phenyl)imidazo [1,5-a]pyrazin-3-yl]-1-(trifluoromethyl) hexahydroindolizin-3(2H)-one] | 4.2 nM |  | 2460 nM
C[C@@](O)(c1ccc(-c2nc([C@@H]3CC[C@H]4C(C(F)(F)F)CC(=O)N4C3)n3ccnc(N)c23)cc1)c1cccc(C(F)F)c1 (stereo partly drawn) [Example 182, (1R,6R,8aS)-6-[8-amino-1-(4-{(1R)-1-[3-(difluoromethyl)phenyl]-1-hydroxyethyl}phenyl)imidazo[1,5-a]pyrazin-3-yl]-1-(trifluoromethyl) hexahydroindolizin-3(2H)-one] | 0.43 nM | 2800 nM | 
CC(O)(c1cccc(C(F)(F)F)c1)c1ccc(-c2nc([C@@H]3CC[C@H]4CCC(=O)N4C3)n3c(F)cnc(N)c23)c(F)c1 (stereo partly drawn) [Example 183, (6R,8aS)-6-[8-amino-5-fluoro-1-(2-fluoro-4-{1-hydroxy-1-[3-(trifluoromethyl)phenyl]ethyl}phenyl)imidazo [1,5-a]pyrazin-3-yl]hexahydroindolizin-3(2H)-one] | 324 nM |  | 561 nM
C[C@@](O)(c1ccc(-c2nc([C@@H]3CC[C@@H]4N(C3)C(=O)CC43CC3)n3ccnc(N)c23)cc1)c1cccc(C(F)(F)F)c1 [Example 188, (6′R,8a′S)-6′-[8-amino-1-(4-{(1R)-1-hydroxy-1-[3-(trifluoromethyl)phenyl]ethyl}phenyl)imidazo [1,5-a]pyrazin-3-yl]tetrahydro-5′H-spiro[cyclopropane-1,1′-indolizin]-3′(2′H)-one] | 1.2 nM | 2500 nM | 
CC(O)(c1cccc(C(F)(F)F)c1)c1ccc(-c2nc([C@@H]3CC[C@@H]4N(C3)C(=O)CC4(C)C)n3ccnc(N)c23)c(F)c1 (stereo partly drawn) [Example 191, (6R,8aS)-6-[8-amino-1-(2-fluoro-4-{1-hydroxy-1-[3-(trifluoromethyl)phenyl]ethyl}phenyl)imidazo [1,5-a]pyrazin-3-yl]-1,1-dimethylhexahydroindolizin-3(2H)-one] | 36.9 nM |  | 431 nM
CC(O)(c1cccc(C(F)F)c1)c1ccc(-c2nc([C@@H]3CC[C@H]4CCC(=O)N4C3)n3ccnc(N)c23)c(F)c1 (some centres unmarked) [Example 195] | 0.33 nM |  | 3500 nM
CC1(C)C[C@@H]2CC[C@@H](c3nc(-c4ccc(C(C)(O)c5cccc(C(F)(F)F)c5)cc4F)c4c(N)nccn34)CN2C1=O (stereo partly drawn) [Example 197, (6R,8aS)-6-[8-amino-1-(2-fluoro-4-{1-hydroxy-1-[3-(trifluoromethyl)phenyl]ethyl}phenyl)imidazo [1,5-a]pyrazin-3-yl]-2,2-dimethylhexahydroindolizin-3(2H)-one] | 2.5 nM |  | 3490 nM
C[C@@](O)(c1ccc(-c2nc([C@@H]3CC[C@H]4CCC(=O)N4C3)n3c(F)cnc(N)c23)cc1)c1cccc(C(F)F)c1 [Example 199, (6R,8aS)-6-(8-amino-1-(4-{(1R)-1-[3-(difluoromethyl)phenyl]-1-hydroxyethyl}phenyl)-5-fluoroimidazo[1,5-a]pyrazin-3-yl]hexahydroindolizin-3(2H)-one] | 0.66 nM | 4500 nM | 

Continued by falling IC50 [1], values first:

IC50 [1] | IC50 ([2]; Homo sapiens, HeLa) | IC50 [2] | Compound
500 nM |  | 369 nM | CC1(C)C[C@@H]2CC[C@@H](c3nc(-c4ccc(C(C)(O)c5cccc(C(F)(F)F)c5)cc4F)c4c(N)nccn34)CN2C1=O (stereo partly drawn) [Example 196, (6R,8aS)-6-[8-amino-1-(2-fluoro-4-{1-hydroxy-1-[3-(trifluoromethyl)pheyl]ethyl}phenyl)imidazo [1,5-a)pyrazin-3-yl]-2,2-dimethylhexahydroindolizin-3(2H)-one]
310 nM |  | 316 nM | CC(O)(c1cccc(C(F)(F)F)c1)c1ccc(-c2nc([C@@H]3CC[C@H]4CCC(=O)N4C3)n3c(Cl)cnc(N)c23)c(F)c1 (stereo partly drawn) [Example 190, (6R,8aS)-6-[8-amino-5-chloro-1-(2-fluoro-4-{1-hydroxy-1-[3-(trifluoromethyl)phenyl]ethyl}phenyl)imidazo [1,5-a]pyrazin-3-yl]hexahydroindolizin-3(2H)-one]
110 nM |  | 522 nM | CC(O)(c1cccc(C(F)F)c1)c1ccc(-c2nc([C@@H]3CC[C@H]4CCC(=O)N4C3)n3ccnc(N)c23)c(F)c1 (stereo partly drawn) [Example 192, (6R,8aS)-6-(8-amino-1-(4-{1-[3-(difluoromethyl)phenyl]-1-hydroxyethyl}-2-fluorophenyl)imidazo[1,5-a]pyrazin-3-yl]hexahydroindolizin-3(2H)-one]
7.1 nM | 6850 nM |  | CC1(C)C[C@@H]2CC[C@@H](c3nc(-c4ccc([C@@](C)(O)c5cccc(C(F)(F)F)c5)cc4)c4c(N)ncc(F)n34)CN2C1=O [Example 198, (6R,8aS)-6-[8-amino-5-fluoro-1-(4-{(1R)-1-hydroxy-1-[3-(trifluoromethyl)phenyl]ethyl}phenyl)imidazo [1,5-a]pyrazin-3-yl]-2,2-dimethylhexahydroindolizin-3(2H)-one]
5 nM |  | 2390 nM | CC(O)(c1cccc(C(F)(F)F)c1)c1ccc(-c2nc([C@@H]3CC[C@H]4CCC(=O)N4C3)n3c(F)cnc(N)c23)c(F)c1 (stereo partly drawn) [Example 185, (6R,8aS)-6-[8-amino-5-fluoro-1-(2-fluoro-4-{1-hydroxy-1-[3-(trifluoromethyl)phenyl]ethyl}phenyl)imidazo [1,5-a]pyrazin-3-yl]hexahydroindolizin-3(2H)-one]
2.8 nM | 2640 nM |  | CC1(C)OC(=O)N2C[C@H](c3nc(-c4ccc([C@@](C)(O)c5cccc(C(F)F)c5)cc4)c4c(N)nccn34)OC[C@H]21 [Example 187, (6R,8aS)-6-[8-amino-1-(4-{(1R)-1-[3-(difluoromethyl)phenyl]-1-hydroxyethyl}phenyl)imidazo[1,5-a]pyrazin-3-yl]-1,1-dimethyltetrahydro-1H-[1,3]oxazolo[4.3-c][1,4]oxazin-3-one]
1.4 nM |  | 2660 nM | C[C@@](O)(c1ccc(-c2nc([C@@H]3CC[C@H]4C(C(F)(F)F)CC(=O)N4C3)n3ccnc(N)c23)cc1)c1cccc(C(F)F)c1 (stereo partly drawn) [Example 184, (1R,6R,8aS)-6-[8-amino-1-(4-{(1R)-1-[3-(difluoromethyl)phenyl]-1-hydroxyethyl}phenyl)imidazo[1,5-a]pyrazin-3-yl]-1-(trifluoromethyl) hexahydroindolizin-3(2H)-one]
1.3 nM | 3080 nM |  | CCOc1cc([C@@](C)(O)c2cccc(C(F)(F)F)c2)ccc1-c1nc([C@@H]2CC[C@@H]3N(C2)C(=O)CC3(C)C)n2ccnc(N)c12 [Example 186, (6R,8aS)-6-[8-amino-1-(2-ethoxy-4-{(1S)-1-hydroxy-1-[3-(trifluoromethyl)phenyl]ethyl}phenyl)imidazo [1,5-a]pyrazin-3-yl]-1,1-dimethylhexahydroindolizin-3(2H)-one]
1.2 nM |  | 1860 nM | CC(O)(c1cccc(C(F)(F)F)c1)c1ccc(-c2nc([C@@H]3CC[C@H]4CCC(=O)N4C3)n3c(Cl)cnc(N)c23)c(F)c1 (stereo partly drawn) [Example 193, (6R,8aS)-6-[8-amino-5-chloro-1-(2-fluoro-4-{1-hydroxy-1-[3-(trifluoromethyl)phenyl]ethyl}phenyl)imidazo [1,5-a]pyrazin-3-yl]hexahydroindolizin-3(2H)-one]
1.1 nM |  | 1300 nM | CC(O)(c1cccc(C(F)(F)F)c1)c1ccc(-c2nc([C@@H]3CC[C@@H]4N(C3)C(=O)CC4(C)C)n3ccnc(N)c23)c(F)c1 (stereo partly drawn) [Example 194, (6R,8aS)-6-[8-amino-1-(2-fluoro-4-{1-hydroxy-1-[3-(trifluoromethyl)phenyl]ethyl}phenyl)imidazo [1,5-a]pyrazin-3-yl]-1,1-dimethylhexahydroindolizin-3(2H)-one]
0.2 nM | 3620 nM |  | CC1(C)C[C@@H]2CC[C@@H](c3nc(-c4ccc([C@@](C)(O)c5cccc(C(F)F)c5)cc4)c4c(N)nccn34)CN2C1=O [Example 181, (6R,8aS)-6-[8-amino-1-(4-{(1R)-1-[3-(difluoromethyl)phenyl]-1-hydroxyethyl}phenyl)imidazo[1,5-a]pyrazin-3-yl]-2,2-dimethylhexahydroindolizin-3(2H)-one]
0.17 nM | 2080 nM |  | C[C@@](O)(c1ccc(-c2nc([C@@H]3CC[C@@H]4N(C3)C(=O)CC43CC3)n3ccnc(N)c23)cc1)c1cccc(C(F)F)c1 [Example 189, (6′R,8a′S)-6′-[8-amino-1-(4-{(1R)-1-[3-(difluoromethyl)phenyl]-1-hydroxyethyl}phenyl)imidazo[1,5-a]pyrazin-3-yl]tetrahydro-5′H-spiro[cyclopropane-1,1′-indolizin]-3′(2′H)-one]
0.1 nM | 1830 nM |  | CC1(C)CC(=O)N2C[C@H](c3nc(-c4ccc([C@@](C)(O)c5cccc(C(F)F)c5)cc4)c4c(N)nccn34)CC[C@H]21 [Example 177, (6R,8aS)-6-[8-amino-1-(4-{(1R)-1-[3-(difluoromethyl)phenyl]-1-hydroxyethyl}phenyl)imidazo[1,5-a]pyrazin-3-yl]-1,1-dimethylhexahydroindolizin-3(2H)-one]
